Some test systems named below: CCRF-CEM; OVCAR-8; HOP-62; K562; M14; IGROV-1; RXF 393; SK-OV-3; HCC 2998; SW-620; HL-60; HCT-15; LOX IMVI; DLD-1; SN12C; 786-0; NCI-H226; SF-539; A498; MDA-MB-435.
Common to all, as to test: DTP human tumour cell line panel, 48 h

SMILES strings stand for the structures. Values joined by “and” are separate entries in the source; they are usually repeats but may differ in a detail not shown here. Equal values may be shown once.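 A five-concentration, 48-hour dose response in 96-well plates underlies each endpoint, interpolated linearly between surrounding concentrations. GI50 marks 50% less growth.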 Active and inactive are the calls of the source. No stated cut-off is given here; in the data, active = GI50 up to about 1.1 µM and inactive = higher. A value given as a limit tells only on which side of the number the result lay.

For orientation: GI50 means the concentration that inhibits growth by half.

Turning to `O=c1cc(-c2ccccc2)oc2cc(OCCSCCCCCCCCCCSCCOc3ccc4c(=O)cc(-c5ccccc5)oc4c3)ccc12`, the GI50 in the assay on CCRF-CEM is > 100 µM (inactive); with OVCAR-8 it was > 100 µM (inactive); with HOP-62, 51.9 µM (inactive); in the assay with K562 it was > 100 µM (inactive); with M14, > 100 µM (inactive); with IGROV-1, > 100 µM (inactive). In addition, the GI50 in the assay with RXF 393 was 37.2 µM (inactive); with SK-OV-3, 74.1 µM (inactive); in the assay with HCC 2998, > 100 µM (inactive); in the assay on SW-620, > 100 µM (inactive); with HL-60, > 100 µM (inactive); with HCT-15, more than 100 µM. In addition, the GI50 is > 100 µM (inactive) in the assay with LOX IMVI, > 100 µM (inactive) with DLD-1, > 100 µM (inactive) with SN12C and 73.5 µM (inactive) in the assay with 786-0.
For `S=C(N/N=C(/c1ccccc1)c1ccccn1)N(Cc1ccccn1)Cc1ccccn1`, the concentration for 50% growth inhibition (GI50) was < 0.01 µM (active) in the assay on CCRF-CEM; < 0.01 µM (active) in the assay with OVCAR-8; 0.964 µM (active) with HOP-62; < 0.01 µM (active) with K562; 0.0323 µM (active) in the assay on M14; < 0.01 µM (active) in the assay on IGROV-1. For the same compound, the 50% growth inhibitory concentration (GI50) with RXF 393 was 1 µM (active); in the assay on NCI-H226 it was < 0.0488 µM (active); with SF-539, 0.119 µM (active); with SK-OV-3, 0.472 µM (active); with HCC 2998 it was 1.63 µM (inactive); in the assay on A498, 0.521 µM (active). Further, the GI50 is < 0.0277 µM (active) in the assay with SW-620; < 0.0443 µM (active) in the assay on HL-60; 0.102 µM with HCT-15; 0.0908 µM (active) in the assay with LOX IMVI; 0.841 µM (active) in the assay with MDA-MB-435; < 0.01 µM (active) with SN12C. Besides, the 50% growth inhibitory concentration (GI50) with 786-0 was 0.475 µM (active).
Regarding `O=C1/C(=C\c2ccccc2)C2/C(=C\c3ccccc3)C(=O)/C(=C\c3ccccc3)C2/C1=C\c1ccccc1` (stereo unspecified), the GI50 was 0.34 µM (active) in the assay with CCRF-CEM; 0.412 µM (active) with OVCAR-8; 2.4 µM (inactive) in the assay on HOP-62; 0.565 µM (active) in the assay with K562; 1.43 µM (inactive) in the assay on M14; 2.01 µM (inactive) in the assay on IGROV-1. Moreover, the GI50 is 1.53 µM (inactive) in the assay with RXF 393; 2.35 µM (inactive) with SF-539; 19.7 µM (inactive) in the assay with SK-OV-3; 1.29 µM (inactive) in the assay with HCC 2998; 1.55 µM (inactive) in the assay on SW-620; 0.608 µM (active) in the assay on HL-60. In addition, the GI50 in the assay with HCT-15 is 1.32 µM; in the assay with LOX IMVI, 0.316 µM (active); in the assay with DLD-1, 1.22 µM (inactive); in the assay with SN12C it was 2.01 µM (inactive); in the assay with 786-0, 1.22 µM (inactive).
Regarding `Cc1ccc(NCc2nnc3c(-c4ccccc4)nc4ccccc4n23)cc1`, the GI50 with CCRF-CEM was 15.1 µM (inactive); in the assay on OVCAR-8, 24 µM (inactive); in the assay on HOP-62, 46.1 µM (inactive); in the assay with K562, 13 µM (inactive); with M14, 37.6 µM (inactive); in the assay on IGROV-1 it was 17.5 µM (inactive). The GI50 in the assay with RXF 393 is 34.8 µM (inactive); in the assay with NCI-H226, 44 µM (inactive); in the assay on SF-539, 60.5 µM (inactive); with SK-OV-3 it was 40.6 µM (inactive); in the assay on HCC 2998, 44.6 µM (inactive); with A498, 32.6 µM (inactive). Further, the GI50 is 39.3 µM (inactive) with SW-620; 14.4 µM (inactive) with HL-60; 38.5 µM in the assay with HCT-15; 23.5 µM (inactive) with LOX IMVI; 29.6 µM (inactive) in the assay on MDA-MB-435; 32.6 µM (inactive) in the assay with SN12C. For the same compound, the GI50 in the assay on 786-0 is 27.9 µM (inactive).
On to `COc1ccc(/C=c2/sc3n(c2=O)NC(c2ccc(Cl)cc2)NN=3)cc1` (stereo unspecified), for which the GI50 with CCRF-CEM, in the assay on OVCAR-8, in the assay with K562, with M14, in the assay with IGROV-1 and in the assay on RXF 393 was > 100 µM (inactive) throughout. Further, the GI50 in the assay on NCI-H226, in the assay on SF-539, in the assay with SK-OV-3, in the assay on HCC 2998, in the assay with SW-620 and in the assay on LOX IMVI was > 100 µM (inactive) each time. Further, the GI50 with DLD-1, in the assay with SN12C and with 786-0 was > 100 µM (inactive) throughout.
For the compound `O=C(O)Cn1c(=O)[nH]c(=O)c2c1ncn2Cc1ccccc1`, the GI50 with CCRF-CEM, in the assay on OVCAR-8, in the assay on HOP-62, in the assay on K562, in the assay with M14 and in the assay with NCI-H226 was > 100 µM (inactive) each time. The GI50 in the assay on SF-539 is > 100 µM (inactive); with SK-OV-3 it was > 100 µM (inactive); with A498, > 100 µM (inactive); in the assay with SW-620, > 100 µM (inactive); in the assay with HCT-15, more than 100 µM; in the assay on DLD-1, > 100 µM (inactive). Besides, the GI50 in the assay with SN12C and in the assay with 786-0 was > 100 µM (inactive) throughout.
For the compound `CC(C)(C)C1=CC(=C2C=Cc3ccccc3O2)C=C(C(C)(C)C)C1=O`, the GI50 with CCRF-CEM was 2.09 µM (inactive); in the assay on OVCAR-8 it was 6.37 µM (inactive); in the assay on HOP-62, 6.04 µM (inactive); in the assay with K562, 3.94 µM (inactive); with M14, 3.55 µM (inactive); with IGROV-1, 6.53 µM (inactive). Further, the GI50 is 2.25 µM (inactive) in the assay on RXF 393; 8.79 µM (inactive) in the assay on NCI-H226; 7.05 µM (inactive) in the assay with SF-539; 13.6 µM (inactive) in the assay with SK-OV-3; 1.61 µM (inactive) with HCC 2998; 4.39 µM (inactive) in the assay with A498. Also, the GI50 in the assay with SW-620 is 2.84 µM (inactive); in the assay on HL-60, 1.9 µM (inactive); in the assay with HCT-15 it was 3.13 µM; in the assay with LOX IMVI it was 3.06 µM (inactive); in the assay on MDA-MB-435 it was 1.75 µM (inactive); with SN12C, 3.21 µM (inactive). The GI50 in the assay with 786-0 is 2.67 µM (inactive).
As for `O=C(c1ccccc1)C1OC12C(=O)Nc1ccccc12` (stereo unspecified), the GI50 was 5.68 µM (inactive) in the assay with CCRF-CEM; 32.5 µM (inactive) in the assay on OVCAR-8; 62.5 µM (inactive) in the assay on HOP-62; 4.5 µM (inactive) in the assay on K562; 21.8 µM (inactive) in the assay with M14; 47.6 µM (inactive) with IGROV-1. Moreover, the GI50 is 20.9 µM (inactive) in the assay with RXF 393; 33.4 µM (inactive) in the assay on NCI-H226; 23.7 µM (inactive) with SF-539; 35.6 µM (inactive) in the assay with SK-OV-3; 73.1 µM (inactive) in the assay with A498; 21.4 µM (inactive) in the assay on SW-620. Besides, the GI50 is 3.27 µM (inactive) in the assay on HL-60; more than 10 µM in the assay with HCT-15; 45 µM (inactive) with LOX IMVI; 32.7 µM (inactive) in the assay on DLD-1; 49.4 µM (inactive) with SN12C; 45.7 µM (inactive) with 786-0.
Consider `COc1cc2cc[n+]3c4cc(OC)c(OC)cc4c(C)cc3c2cc1OC`, for which the GI50 with CCRF-CEM, in the assay with OVCAR-8, in the assay on HOP-62, with K562, in the assay with M14 and in the assay with IGROV-1 was > 100 µM (inactive) each time. The GI50 in the assay with NCI-H226 is > 100 µM (inactive); in the assay on SF-539 it was > 100 µM (inactive); in the assay on SK-OV-3, > 100 µM (inactive); with HCC 2998 it was 61.8 µM (inactive); in the assay with SW-620, > 100 µM (inactive); in the assay with HL-60, > 100 µM (inactive). Further, the GI50 with HCT-15 is more than 100 µM; with LOX IMVI it was > 100 µM (inactive); in the assay on DLD-1, > 100 µM (inactive); in the assay on SN12C, > 100 µM (inactive); in the assay with 786-0, > 100 µM (inactive).
As to `CC(C)OP(=S)(NC(=S)c1ccccc1)OC(C)C`, the GI50 with CCRF-CEM, in the assay with OVCAR-8, in the assay on K562, in the assay with M14, in the assay on IGROV-1 and in the assay with NCI-H226 was > 100 µM (inactive) in each case. Further, the GI50 with SF-539 was > 100 µM (inactive); with SK-OV-3, > 100 µM (inactive); with HCC 2998, > 100 µM (inactive); in the assay with A498 it was > 100 µM (inactive); with SW-620, > 100 µM (inactive); in the assay with HCT-15, more than 100 µM. Besides, the GI50 with LOX IMVI, with DLD-1, in the assay with SN12C and in the assay on 786-0 was > 100 µM (inactive) each time.
As for `O=C1C=CC2(O)OCC3C=C4O[C@@H]5OC6(CCCCC6)O[C@@H]5C4[C@@H]2[C@@H]13` (stereo partly specified), the GI50 in the assay with CCRF-CEM is 8.73 µM (inactive); with OVCAR-8 it was 24.9 µM (inactive); in the assay with HOP-62 it was > 100 µM (inactive); in the assay with K562, 14.5 µM (inactive); with M14 it was 20.5 µM (inactive); in the assay with IGROV-1, 56.4 µM (inactive). In addition, the GI50 was 33.6 µM (inactive) with NCI-H226; > 100 µM (inactive) in the assay with SK-OV-3; 53.2 µM (inactive) in the assay on HCC 2998; 72.4 µM (inactive) in the assay with A498; 27.4 µM (inactive) with SW-620; 16.5 µM (inactive) in the assay with HL-60. Besides, the GI50 with HCT-15 is 17 µM; in the assay with LOX IMVI it was 42.6 µM (inactive); in the assay on DLD-1, 22.4 µM (inactive); in the assay with SN12C, 48 µM (inactive); with 786-0, 20.4 µM (inactive).
As to `COC(=O)CC(C(C(C)=O)C(=O)OCc1ccccc1)N1C(=O)OC(c2ccccc2)C1c1ccccc1` (stereo unspecified), the GI50 with CCRF-CEM is 72.4 µM (inactive) and 73.8 µM (inactive); in the assay on OVCAR-8, 70.3 µM (inactive) and 71.1 µM (inactive); in the assay with HOP-62 it was 54.1 µM (inactive); in the assay with K562, 68.5 µM (inactive) and 71.3 µM (inactive); with IGROV-1 it was > 100 µM (inactive); in the assay on SK-OV-3, > 100 µM (inactive). The GI50 with HCC 2998 is > 100 µM (inactive) and 89.3 µM (inactive); with SW-620 it was > 100 µM (inactive); in the assay on HL-60, 37.7 µM (inactive) and 32.2 µM (inactive); in the assay with HCT-15 it was 52.2 µM and 62.5 µM; in the assay on LOX IMVI it was 78.5 µM (inactive); in the assay on DLD-1, 64.7 µM (inactive). Besides, the GI50 in the assay with SN12C and in the assay on 786-0 was > 100 µM (inactive) each time.

Values taken from ChEMBL document CHEMBL1201862, “PubChem BioAssay data set” (2004).
